This note sets out measurements from patent US20080109040A1, “METHOD OF TREATING ARRHYTHMIAS” (priority 2002, published 2008).

The subject of this experiment is guinea pig ventricular myocytes. The experiment is described as follows: Action potential duration, EADs and triggered activity in guinea pig ventricular myocytes. The following applies: for Reduction of ATX-II-induced prolongation of APD50: ATX-II 10-20 nmol/L; for Attenuation of ATXII-induced prolongation of APD50: ATXII 10-40 nmol/L. As for the experimental part: Single ventricular myocytes were isolated from the hearts of adult, male guinea pigs (Harlan). In brief, the hearts were perfused with warm (35° C.) and oxygenated solutions in the following order: 1) Tyrode solution containing (in mmol/L) 140 NaCl, 4.6 KCl, 1.8 CaCl2, 1.1 MgSO4, 10 glucose and 5 HEPES, pH 7.4, for 5 minutes; 2) Ca^2+-free solution containing (in mmol/L) 100 NaCl, 30 KCl, 2 MgSO4, 10 glucose, 5 HEPES, 20 taurine, and 5 pyruvate, pH 7.4, for 5 minutes; and 3) Ca^2+-free solution containing sollagenase (120 units/ml) and albumin (2 mg/ml), for 20 minutes. At the end of the perfusion, the ventricles were removed, minced, and gently shaken for 10 minutes in solution #3. Isolated cells were harvested from the cell suspension.
Myocytes were placed into a recording chamber and superfused with Tyrode solution at 35° C. Drugs were applied via the superfusate. Action potentials were measured using glass microelectrodes filled with a solution containing (in mmol/L) 120 K-aspartate, 20 KCl, 1 MgCl2, 4 Na2ATP, 0.1 Na3GTP, 10 glucose, 1 EGTA and 10 HEPES (pH 7.2). Microelectrode resistance was 1-3 MΩ. An Axopatch-200 amplifier, a DigiData-1200A interface and pCLAMP6 software were used to perform electrophysiological measurements. Action potentials were induced by 5-ms depolarizing pulses applied at various frequencies as indicated. The duration of action potential was measured at 50% (APD50) and 90% (APD90) repolarization.
1) Ventricular myocytes were electrically stimulated at a frequency of 0.5, 1 or 2 Hz. Each myocyte was treated with 3, 10 and 30 μmol/L ranolazine. The effect of ranolazine on action potential duration at each pacing frequency was determined from 4 myocytes.
2) Action potentials were elicited at a frequency of 0.25 Hz, and the effect of ranolazine (10 μmol/L) on action potential duration was examined in the presence of 5 μmol/L quinidine. Experiments were performed on 4 myocytes.
Following the procedures and protocols of Example 21, guinea pig ventricular myocytes were electrically stimulated in the presence of ranolazine either alone or in the presence of ATX II [a sea anemone toxin known to mimic LQT3 syndrome by slowing Na^+-channel inactivation from the open state and thereby increasing the peak and late Na^+ current (INa) of cardiomyocytes]. ATXII is known to induce early afterdepolarizations (EADs) and triggered activity and ventricular tachycardia.
Action potentials were recorded using the whole-cell patch-electrode technique. Ventricular monophasic action potentials and electrograms were recorded from isolated hearts.
The ventricular APD of guinea pigs isolated myocytes and hearts was measured, respectively, at 50% (APD50) and 90% (MAPD90) repolarization.

Setting [1] is: ranolazine 10 μmol/L, ATX-II plus either E-4031 or 293B.

Structures are written as SMILES. “Also recorded” adds a separate entry of the source.

For the molecule `COc1ccccc1OCC(O)CN1CCN(CC(=O)Nc2c(C)cccc2C)CC1` (racemic) [ranolazine, N-(2,6-dimethylphenyl)-4-[2-hydroxy-3-(2-methoxyphenoxy)propyl]-1-piperazineacetamide], the “Reduction of ATX-II-induced prolongation of APD50” value came to 29±1% (ranolazine 0.1 μmol/L); 47±1% (ranolazine 0.3 μmol/L); 63±3% (ranolazine 1 μmol/L); 79±1% (ranolazine 3 μmol/L); 86±2% (ranolazine 10 μmol/L); 99±1% (ranolazine 30 μmol/L). Besides, the “Attenuation of ATXII-induced prolongation of APD50” value turned out to be 60±4% (ranolazine 1 μmol/L), 80±2% (ranolazine 3 μmol/L), 86±2% (ranolazine 10 μmol/L) and 99±1% (ranolazine 30 μmol/L). In addition, under setting [1], the “Effect on EADs” value was “completely abolished the EADs”. Besides, under setting [1], the “Reversal of the prolongation of APD50” value was “about 70%”. Also, the “Suppression of quinidine-induced EADs and triggered activity” value (ranolazine 10 μmol/L, quinidine 2.5 μmol/L) is “effective in suppressing EADs; also recorded: effective in suppressing triggered activity; also recorded: suppressed EADs and TA”. Further, the “Effect on quinidine-induced action potential prolongation” value (ranolazine 10 μmol/L, quinidine 5 μmol/L, 0.25 Hz) is given as “attenuated the effect of quinidine”. Also, the “Effect on APD50 and APD90” value (ranolazine 3, 10, 30 μmol/L, 0.5, 1, 2 Hz) is “moderate and concentration-dependent shortening”.
